Reference: US10548984B2 (priority 2015, dated 2020)
Non-standard residues stand in square brackets, D forms with d. Residues, ends and D or L forms follow the SMILES beside them.

Assays:
[1] = system: mice; conditions: mouse, in vivo
[2] = system: mice; experiment: Immunogenicity study (serum antibody ELISA); assay type: in vivo, mouse; conditions: i.v. injection
Procedure: Mice were injected intravenously with 50 μg of siRNA complexed with either the Test-Peptide or Test-RI Peptide vectors, with the peptide vector alone or with PBS as negative control for three consecutive days, and then on every alternate day for 14 days. […] To detect the presence of antibodies to the Test-Peptide or Test-RI-peptide, serum was collected from the mice on day 21 and serial double dilution (1:100 followed by 10 dilutions) of the sera was incubated in 384 well microtitre plate coated with either Test-Peptide or Test-RI-peptide (50 ng/well). The bound antibody was detected with a goat anti-mouse Ig-HRP conjugate.

[3] = system: nAchRs present on M17 cells; experiment: Competitive binding assay and immunocytochemistry of biotinylated peptide on M17 cells; parameters: species or system human; conditions: avidin-FITC
Procedure: To confirm that the binding specificity of the peptide to the neuronal cells was mediated by its binding to nAchRs, a competition assay was performed using alpha bangarotoxin (BTX) peptide, which is a competitive antagonist for nAchRs.
M17 cells were incubated with the biotinylated-peptide (SEQ ID NO:2) (2.5 μM) in the absence or presence of BTX peptide (0.01 μM or 0.1 μM) at 4° C. for 1 hr, stained with avidin-FITC and analyzed by FACS.
Immunocytochemistry was used to confirm the binding of the peptide (SEQ ID NO:2) to M17 cells. M17 cells were incubated with or without biotinylated-peptides (SEQ ID NO:2) or with the MAT peptide which served as a negative control. The cells were then stained with avidin-FITC and viewed by fluorescence microscopy.

| Compound | production of inflammatory cytokines [1] | antibody response [2] | binding of peptide to M17 cells (FITC-positive immunostaining) ([3]; biotinylated peptide, fluorescence microscopy) | inhibition of biotinylated-peptide (SEQ ID NO:2) binding to M17 cells ([3]; peptide 2.5 μM, BTX 0.01 μM or 0.1 μM, 4° C., 1 hr, FACS) |
| --- | --- | --- | --- | --- |
| CC[C@@H](C)[C@@H](NC(=O)[C@@H](Cc1ccccc1)NC(=O)[C@H](NC(=O)[C@@H](CC(N)=O)NC(=O)[C@@H](CO)NC(=O)[C@@H](CCCNC(=N)N)NC(=O)CNC(=O)[C@@H](CCCCN)NC(=O)CN(C)C(=O)CN(C)C(=O)CN(C)C(=O)CN(C)C(=O)[C@@H](CCCNC(=N)N)NC(=O)[C@@H](CCCNC(=N)N)NC(=O)[C@@H](CCCNC(=N)N)NC(=O)[C@@H](CCCNC(=N)N)NC(=O)[C@@H](CCCNC(=N)N)NC(=O)[C@@H](CCCNC(=N)N)NC(=O)[C@@H](CCCNC(=N)N)NC(=O)[C@@H](CCCNC(=N)N)NC(=O)[C@H](N)CCCNC(=N)N)[C@H](C)O)C(=O)N[C@H](CC(=O)O)C(=O)N[C@H](CS)C(=O)O [Test-RI-peptide, H-rrrrrrrrr-Sar-Sar-Sar-Sar-kGrsntfidc] | did not elicit an antibody response or result in the production inflammatory cytokines | did not elicit an antibody response | – | – |
| CC[C@H](C)[C@H](NC(=O)[C@H](CC(=O)O)NC(=O)[C@@H](N)CS)C(=O)N[C@@H](Cc1ccccc1)C(=O)N[C@H](C(=O)N[C@@H](CC(N)=O)C(=O)N[C@@H](CO)C(=O)N[C@@H](CCCNC(=N)N)C(=O)NCC(=O)N[C@@H](CCCCN)C(=O)NCC(=O)NCC(=O)NCC(=O)NCC(=O)N[C@H](CCCNC(=N)N)C(=O)N[C@H](CCCNC(=N)N)C(=O)N[C@H](CCCNC(=N)N)C(=O)N[C@H](CCCNC(=N)N)C(=O)N[C@H](CCCNC(=N)N)C(=O)N[C@H](CCCNC(=N)N)C(=O)N[C@H](CCCNC(=N)N)C(=O)N[C@H](CCCNC(=N)N)C(=O)N[C@H](CCCNC(=N)N)C(=O)O)[C@@H](C)O [Test-peptide] (H-CDIFTNSRGKGGGG[dR][dR][dR][dR][dR][dR][dR][dR][dR]-OH; C-terminus assumed) | did not elicit an antibody response or result in the production inflammatory cytokines | did not elicit an antibody response | – | – |
| CDIFTNSRGK [peptide (SEQ ID NO:2), RVG derived 10 residue peptide] | – | – | binds specifically to neuronal cells | – |
| alpha bangarotoxin [BTX, reference compound] | – | – | – | inhibited peptide binding to M17 cells in a dose-dependent manner |
